Earlier results on 1 compound are cited in patent US20050163856A1, “Abuse-resistant sustained-release opioid formulation” (Roxane Laboratories, Inc., priority 1999, published 2005).

The conditions of the data set: conventional tablet form.

Counter-ions that a name gives are not always drawn.

As for `COc1ccc2c3c1O[C@H]1C(=O)CC[C@@]4(O)[C@@H](C2)N(C)CC[C@]314` [Oxycodone, oxycodone (dihydrohydroxycodeinone) hydrochloride], the half-time of absorption entry is on record as “about 0.4 hours”.
